Assay results published in patent US8815935B2, “Inhibitors of protein prenyltransferases” (The Regents of the University of California, priority 2008, dated 2014).
“Also recorded” adds a separate entry of the source.

Tests used:
K562 cells = experiment: Cell cycle profile by flow cytometry, K562; type: cell-based, human; conditions: 48 hours, FIG. 24A
Protocol: K562 cells were treated with indicated concentrations (mM) of P3-E5 (ranging from […]) or GGTI-298 (ranging from […]) for 48 hours. Cell cycle profiles were monitored by flow cytometry. Percentages of cells in each phase of the cell cycle are indicated by different colors. Red: G0/G1 phase. Black: S phase. Gray: G2/M phase.

BT474 = BT474 cell growth inhibition; type: cell-based, human; conditions: Homo sapiens, BT-474, 72 h; 3 days, CCK-8, vs DMSO; read-out: IC50, BT474 (Breast)
Protocol: (§1) In FIG. 9-24 in vitro IC50 values for the GGTase I activity are reported. In Tables 7-15 in cell GI50 values for the growth inhibition of a variety of cancer cell lines (e.g., Jurkat, K562, MDA-MB-231, BT474, MCF7, MiaPaCa2, Aspc-1, Panc-1, Capan-2, CFpac-1, and MCF10a) are reported.
(§2) Cell viability was determined by Cell Counting Kit-8 (CCK-8, Dojindo, Kumamoto, Japan) as described previously (31). Cell viability was calculated relative to the DMSO control. Cell cycle profile was analyzed by flow cytometry as described previously (32).

MCF7 = MCF7 cell growth inhibition; type: cell-based, human
Outline: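 GI50 from CCK-8 viability read-out, with viability calculated relative to DMSO control.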

MiaPaCa2 = MiaPaCa2 cell growth inhibition; type: cell-based, human; conditions: Homo sapiens, MIA PaCa-2, 72 h; 3 days, CCK-8, vs DMSO; read-out: IC50, MiaPaCa2 (Pancreas)
Protocol: as §1, §2

Panc-1 [1] = experiment: Panc-1 cell growth inhibition; type: cell-based, human; conditions: Homo sapiens, PANC-1, 72 h; 3 days, CCK-8, vs DMSO; read-out: IC50, PANC-1 (Pancreas)
Protocol: as §1
Panc-1 cells (Pancreatic cancer cell line) and Jurkat cells (T-cell leukemia) were treated with 12.5 μM of P5-H6 or 12.5 μM of mP5-H6a for 72 hours. The cell number was counted as described in Example 5.
as §2

HPAC = HPAC cell growth inhibition; type: cell-based; conditions: Homo sapiens, 72 h, 3 days, CCK-8, vs DMSO, read-out: IC50, HPAC (Pancreas)
Protocol: as §2

Jurkat = experiment: Cell cycle distribution by flow cytometry, Jurkat; type: cell-based, human; conditions: 10 μM, 48 hours
Protocol: as §2

Panc-1 [2] = experiment: Cell cycle distribution by flow cytometry, PANC-1; type: cell-based, human; conditions: 10 μM, 48 hours
Protocol: as §2

MDA-MB-231 = experiment: Cell cycle distribution by flow cytometry, MDA-MB-231; type: cell-based, human; conditions: 10 μM, 48 hours
Protocol: as §2

MCF-7 cells = experiment: Cell cycle profile by flow cytometry, MCF-7; type: cell-based, human; conditions: 48 hours, FIG. 37B
Protocol: MCF-7 cells were treated with P61-A6, P61-B6 or DMSO for 72 hours. Cell viability relative to the DMSO control (100% value) is plotted. (B) MCF-7 cells were treated with indicated concentrations (μM) of P61-A6, P61-B6 or DMSO for 48 hours. Cell cycle profiles were monitored by flow cytometry. Percentages of cells in each phase of the cell cycle are indicated by different shades. (C) NIH3T3 cells were transfected with p21^CIP1/WAF1-luciferase or empty vector. Cells were treated with P61-A6 or P61-B6 compound at indicated concentrations or with DMSO for 48 hours and luciferase assay was performed. Data represent the mean+/−S.D. of two measurements from two independent experiments. *, P<0.05; **, P<0.005 compared with the value for DMSO.
as §2

[3] = tested on: Rap1 geranylgeranylation in NIH3T3 cells; experiment: Unprenylated Rap1 immunoblot in NIH3T3 cells; type: cell-based; conditions: 48 hours
Protocol: The inhibition of GGTase-I catalyzed protein geranylgeranylation was assessed by examining the accumulation of unprenylated Rap1. To measure the level of unprenylated Rap1, cells were cultured in DMEM plus 10% (v/v) FBS overnight, and then DMSO or appropriate inhibitors were added. Incubation was continued for 48 hours. The cells were harvested and lysed in lysis buffer (20 mM Tris-HCl, pH 7.5, 150 mM NaCl, 1 mM EDTA, 1% NP-40 and 1× Protease Inhibitor Cocktail). Whole cell lysates of NIH3T3 cells were electrophoresed on a 12% SDS-PAGE, transferred to nitrocellulose membranes and immunoblotted with the antibody against unprenylated form of Rap1 (Santa Cruz Biotechnology catalog number sc-1482, goat), total-Rap1 (Santa Cruz: sc-65) or actin (Sigma: A4700). Actin was used as a loading control.

[4] = tested on: H-Ras farnesylation in NIH3T3 cells; experiment: H-Ras mobility shift immunoblot in NIH3T3 cells; type: cell-based; conditions: 48 hours
Protocol: K562 cells were treated with modified compounds for 72 hours and then cell number was counted. IC50 values of cell viability relative to the DMSO were measured. […] Data represent the mean+/−S.D. of two measurements from two independent experiments. *, P<0.05 compared with the value for DMSO. […] Whole cell lysates from cells treated with DMSO, P5-H6, P61-A6, GGTI (GGTI-298), FTI (BMS-225975) or RabGGTI (P49-F6) for 48 hours were prepared and processed for immunoblot analysis using antibody against unprenylated form of Rap1 (C: upper panel), Total-Rap1 (C: middle panel), H-Ras (D: upper panel), Rab5b (E: upper panel) or actin (C, D, and E: lower panel). The immunoblots shown represent two independent experiments for each treatment.
This was examined by using a farnesylated protein H-Ras.

[5] = tested on: Rab5b geranylgeranylation in NIH3T3 cells; experiment: Rab5b immunoblot and subcellular fractionation in NIH3T3 cells; type: cell-based; conditions: 48 hours
Protocol: The inhibition of Rab geranylgeranylation in cells (FIG. 43) was examined according to (29). Briefly, whole cell lysates were subjected to 15% SDS-PAGE containing 4M urea followed by immunoblotting with the antibody against Rab5b (Santa Cruz: sc-598) or actin. Subcellular fractionations (FIG. 44) were performed as described by Gomes et al. (30). Briefly, cells were treated with P49-F6 for 48 hours. After osmotic lysis, cell debris were removed by centrifugation at 500×g for 10 min, and the supernatant was subjected to ultracentrifugation at 100,000×g for 60 min. The supernatant of ultracentrifugation was collected as a soluble fraction. The pellet was collected as a membrane fraction. These fractions were subjected to electrophoresis on 10% SDS-PAGE gels followed by immunoblotting with the antibody against Rab5b. RhoGDI (Santa Cruz: sc-360) and Na^+/K^+ ATPase (Sigma: A276) were used as markers for soluble and membrane fractions, respectively.

Cc1ccccc1S(=O)(=O)N1[C@@H](c2cccc(Cl)c2)C(C(=O)O)=CC[C@H]1c1ccc(Cl)cc1 [P3-E5]
cell cycle effect in K562 cells (K562 cells): induces G1 arrest

Cc1ccccc1S(=O)(=O)N1C(c2ccc(Cl)cc2)C(C(=O)NC(Cc2ccccc2)C(N)=O)=CC1C(C)(C)C (stereo not drawn) [P61-A6]
IC50 (BT474): 8.5 µM
inhibition of proliferation of MCF-7 (MCF7; 72 hours, FIG. 37A): dose-dependent inhibition of proliferation
IC50 (MCF7; Homo sapiens, MCF7, 144 h, 6 days, CCK-8, vs DMSO, read-out: IC50, MCF-7 (Breast)): 4.5 µM
IC50 (MiaPaCa2): 4.7 µM
IC50 (Panc-1 [1]): 5.2 µM
IC50 (HPAC): 3.9 µM
Percent G2/M, Jurkat (Jurkat; DMSO 11.80): 11.60%
Percent G0/G1, Jurkat (Jurkat; DMSO 46.92): 57.87%
Percent G2/M, PANC-1 (Panc-1 [2]; DMSO 24.21): 19.81%
Percent G0/G1, PANC-1 (Panc-1 [2]; DMSO 42.08): 54.13%
Percent G2/M, MDA-MB-231 (MDA-MB-231; DMSO 7.74): 5.15%
Percent G0/G1, MDA-MB-231 (MDA-MB-231; DMSO 73.78): 85.16%
cell cycle effect in MCF-7 (MCF-7 cells): dose-dependent enrichment of G1 phase cells
appearance of the unprenylated (unprocessed) Rap1 band [3]: in a dose dependent manner; also recorded: inhibits Rap1 geranylgeranylation
appearance of the unprenylated Rap1 band at 2.5 μM ([3]; 2.5 μM): observed
mobility shift of H-Ras (protein farnesylation) [4]: no such mobility shift
inhibition of Rab5b geranylgeranylation (slow migrating unmodified Rab5b band) [5]: did not inhibit geranylgeranylation of Rab5b
